The numbers were not newly measured in patent publication US10849951B2, “Use of PHY906 as treatment for inflammatory bowel disease and/or irritable bowel syndrome” (priority 2007, dated 2020), which cites them from elsewhere.

In one data set the test system is patients. As to conditions: NCI Common Toxicity criteria.
Another data set has as its system perineal Crohn's. As to conditions: human, in vivo.
Data set [1] has as its target bacterial 13-glucuronidase (Escherichia coli, UniProt P05804).

bacterial 13-glucuronidase, sequence (P05804 whole entry): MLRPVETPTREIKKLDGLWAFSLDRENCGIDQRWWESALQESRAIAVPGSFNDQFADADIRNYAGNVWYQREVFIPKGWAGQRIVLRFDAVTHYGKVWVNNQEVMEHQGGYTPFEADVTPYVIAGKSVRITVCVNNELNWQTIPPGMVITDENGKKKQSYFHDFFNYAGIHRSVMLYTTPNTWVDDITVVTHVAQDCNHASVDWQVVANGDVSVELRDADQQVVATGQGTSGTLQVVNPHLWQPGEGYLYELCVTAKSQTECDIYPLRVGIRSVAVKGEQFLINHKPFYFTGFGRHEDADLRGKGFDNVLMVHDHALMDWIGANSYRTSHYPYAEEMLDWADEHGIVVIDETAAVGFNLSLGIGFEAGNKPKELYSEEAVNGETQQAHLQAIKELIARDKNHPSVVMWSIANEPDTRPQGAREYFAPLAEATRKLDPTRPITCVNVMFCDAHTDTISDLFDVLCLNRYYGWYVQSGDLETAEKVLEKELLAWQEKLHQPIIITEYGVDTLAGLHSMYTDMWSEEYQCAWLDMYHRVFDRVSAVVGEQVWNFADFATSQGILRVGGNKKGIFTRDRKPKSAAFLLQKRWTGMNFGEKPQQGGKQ

Take `CCc1c2c(nc3ccc(OC(=O)N4CCC(N5CCCCC5)CC4)cc13)-c1cc3c(c(=O)n1C2)COC(=O)[C@]3(O)CC` [CPT-11, irinotecan]: the “patients with diarrhea classified grade 3 (serious) or grade 4 (life-threatening)” value in the data set on patients was “about 40%”.
Turning to `Cc1ncc([N+](=O)[O-])n1CCO` [Metronidazole, metronidazole], the “cases in which managing perineal Crohn's is effective” value in the data set with perineal Crohn's is “over 50%”.
Turning to `O=c1cc(-c2ccccc2)oc2cc(O)c(O)c(O)c12` [Baicalein], the “inhibition of bacterial 13-glucuronidase” value in data set [1] was “feedback inhibitor”.
